According to patent publication US12115172B2, “Sulfate-free cleansing composition that confers high salicylic acid deposition” (L'OREAL, priority 2021, dated 2024):

assay: HLB value of the surfactant; assay type: physicochemical; conditions: of the 30% anionic surfactant used in the composition
Description: The term “Hydrophilic-Lipophilic Balance” or “HLB,” refers to an empirical expression for the relationship of the hydrophilic and hydrophobic groups of an emulsifier. This term is well known to those skilled in the art. See, e.g., “The HLB system.

Molecule	HLB VALUE
SODIUM LAUROYL SARCOSINATE	29.8
DECYL GLUCOSIDE (APGS)	13
CCCCCCCCCCCCOS(=O)(=O)[O-].[Na+] [SODIUM LAURYL SULFATE]	40.1
SODIUM COCOYL GLYCINATE	14
